The test has as its target T1, recombinant F508del V470 CFTR in Fischer rat thyroid (FRT) cells (Homo sapiens, UniProt P13569, DEL508-508).
T1 construct: expressed in transfected cells
Put plainly: FRT ion flux assay of F508del CFTR potentiation. Format: cell-based. To be noted: FRT cells expressing F508del V470 CFTR, forskolin 20 uM, 27° C. pre-incubation. How it is done: FRT Ion Flux Assay of F508del CFTR Potentiation
Fischer rat thyroid (FRT) cell lines stably expressing recombinant F508del V470 CFTR and halide-sensitive yellow fluorescent protein (Pedemonte et al., J. Clin. Invest. 115(9) 2564-71 (2005)) were seeded at 25,000 cells/well in 50 uL/well of culture medium into black-walled, clear bottom tissue-culture-treated 384-well plates (Corning, cat. no. 3712). After one day, the cells were pre-incubated at 27° C./5% CO2 for 16-24 hours. The cells were then washed with dPBS and treated with forskolin (20 uM) and test compound for 30 mi by addition of 20 uL of compound dilution buffer (dPBS containing forskolin and test compound). Plates were loaded into FLIPR384 fluorescence imaging plate reader (Molecular Devices). After an initial fluorescence reading, iodide buffer (25 uL) (composition (in mM): 137 NaI, 1.5 K2PO4, 8.1 NaH2PO4, 2.7 KCl, 0.5 MgCl2, 1 CaCl2) was added and a second fluorescence reading was made after approximately 21 seconds. Data treatment involved division of the second fluorescence reading by the initial fluorescence reading, then scaling of the resulting normalized endpoint fluorescence with respect to the responses for DMSO (0%) and a positive control potentiator (100%).
T1 sequence (P13569 with tags, fused parts or gaps DEL508-508): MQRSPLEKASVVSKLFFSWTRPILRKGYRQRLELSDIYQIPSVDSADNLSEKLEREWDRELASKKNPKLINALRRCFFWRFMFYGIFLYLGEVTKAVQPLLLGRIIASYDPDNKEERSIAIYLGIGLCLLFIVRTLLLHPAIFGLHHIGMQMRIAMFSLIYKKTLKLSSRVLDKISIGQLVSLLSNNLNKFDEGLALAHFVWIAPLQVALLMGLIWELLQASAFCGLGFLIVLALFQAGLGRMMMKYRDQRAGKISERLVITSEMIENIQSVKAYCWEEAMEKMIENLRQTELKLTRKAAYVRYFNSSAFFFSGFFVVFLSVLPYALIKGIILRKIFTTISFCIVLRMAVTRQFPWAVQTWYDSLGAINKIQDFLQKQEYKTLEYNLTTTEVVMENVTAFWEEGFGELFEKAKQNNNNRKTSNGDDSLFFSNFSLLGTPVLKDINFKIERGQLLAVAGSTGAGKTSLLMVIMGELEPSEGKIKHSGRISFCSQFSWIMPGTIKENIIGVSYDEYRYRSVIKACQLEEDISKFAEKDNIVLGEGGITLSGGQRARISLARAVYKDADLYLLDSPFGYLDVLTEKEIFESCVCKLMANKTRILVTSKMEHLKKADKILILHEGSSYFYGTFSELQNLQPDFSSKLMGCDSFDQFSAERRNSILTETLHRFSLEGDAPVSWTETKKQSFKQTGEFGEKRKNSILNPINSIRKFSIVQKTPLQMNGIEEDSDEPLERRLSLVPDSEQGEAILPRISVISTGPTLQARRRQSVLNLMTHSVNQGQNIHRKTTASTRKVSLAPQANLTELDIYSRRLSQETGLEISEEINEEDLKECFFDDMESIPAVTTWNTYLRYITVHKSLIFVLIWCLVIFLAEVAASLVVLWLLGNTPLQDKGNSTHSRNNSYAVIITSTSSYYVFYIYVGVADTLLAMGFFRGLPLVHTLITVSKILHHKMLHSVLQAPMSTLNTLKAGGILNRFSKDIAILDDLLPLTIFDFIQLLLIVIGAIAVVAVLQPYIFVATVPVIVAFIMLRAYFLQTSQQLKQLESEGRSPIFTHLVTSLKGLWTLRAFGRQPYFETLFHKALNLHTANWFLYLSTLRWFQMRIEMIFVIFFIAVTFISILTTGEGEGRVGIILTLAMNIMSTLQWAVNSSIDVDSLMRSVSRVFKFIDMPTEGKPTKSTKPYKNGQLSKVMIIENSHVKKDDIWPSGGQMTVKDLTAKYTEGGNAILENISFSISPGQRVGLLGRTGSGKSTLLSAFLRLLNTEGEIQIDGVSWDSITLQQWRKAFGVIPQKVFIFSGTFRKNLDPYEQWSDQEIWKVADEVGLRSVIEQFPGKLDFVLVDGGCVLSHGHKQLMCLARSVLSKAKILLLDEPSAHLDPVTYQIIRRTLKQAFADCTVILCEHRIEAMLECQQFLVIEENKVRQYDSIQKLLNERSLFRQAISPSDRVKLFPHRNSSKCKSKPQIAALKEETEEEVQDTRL
The EC50 is the concentration that produces a half-maximal response. Regarding `CCC(c1nnn(-c2ccc(F)cc2F)c1C)n1cc(-c2cnc(C(F)(F)F)nc2)c2c(N)ncnc21` (single isomer, unassigned) [Example 190], the EC50 came out at 457 nM.

`CCC(c1cn(-c2ccccc2F)nn1)n1cc(-c2cc[nH]n2)c2c(N)ncnc21` (single isomer, unassigned; enantiomer 1) [Example 147, 7-{1-[1-(2-Fluorophenyl)-1H-1,2,3-triazol-4-yl]propyl}-5-(1H-pyrazol-3-yl)-7H-pyrrolo[2,3-d]pyrimidin-4-amine, enantiomer 1]: the EC50 is 479 nM.

For `CC(c1cn(-c2ccccc2F)nn1)n1cc(-c2cc[nH]n2)c2c(N)ncnc21` (single isomer, unassigned; enantiomer 2) [Example 122, 7-{1-[1-(2-Fluorophenyl)-1H-1,2,3-triazol-4-yl]ethyl}-5-(1H-pyrazol-3-yl)-7H-pyrrolo[2,3-d]pyrimidin-4-amine, enantiomer 2], the EC50 turned out to be 1050 nM.

With `CC(c1cn(-c2ccc(F)cc2F)nn1)n1cc(-c2cnc(C(F)(F)F)nc2)c2c(N)ncnc21` (single isomer, unassigned; enantiomer 2) [Example 124, 7-{1-[1-(2,4-Difluorophenyl)-1H-1,2,3-triazol-4-yl]ethyl}-5-[2-(trifluoromethyl)pyrimidin-5-yl]-7H-pyrrolo[2,3-d]pyrimidin-4-amine, enantiomer 2], the 50% effective concentration (EC50) amounted to 1240 nM.

Take `CCC(c1cn(-c2ccccc2F)nn1)n1cc(-c2cnc(C(F)F)nc2)c2c(N)ncnc21` (single isomer, unassigned; enantiomer 2) [Example 144, 5-[2-(Difluoromethyl)pyrimidin-5-yl]-7-{1-[1-(2-fluorophenyl)-1H-1,2,3-triazol-4-yl]propyl}-7H-pyrrolo[2,3-d]pyrimidin-4-amine, enantiomer 2]: the EC50 was determined as 732 nM.

For the compound `CCC(c1cn(-c2ccccc2F)nn1)n1cc(-c2cnc(N(C)C)nc2)c2c(N)ncnc21` (single isomer, unassigned; enantiomer 2) [Example 146, 5-[2-(Dimethylamino)pyrimidin-5-yl]-7-{1-[1-(2-fluorophenyl)-1H-1,2,3-triazol-4-yl]propyl}-7H-pyrrolo[2,3-d]pyrimidin-4-amine, enantiomer 2], the EC50 is 1190 nM.

As to `CCC(c1c[nH]c(-c2ccc(F)cc2F)n1)n1cc(-c2cnc(C(F)(F)F)nc2)c2c(N)ncnc21` (single isomer, unassigned; enantiomer 2) [Example 178, 7-{1-[2-(2,4-Difluorophenyl)-2H-imidazol-4-yl]propyl}-5-[2-(trifluoromethyl)pyrimidin-5-yl]-7H-pyrrolo[2,3-d]pyrimidin-4-amine, enantiomer 2], the EC50 turned out to be 850 nM.

With `Cc1c(C(C)n2cc(-c3cnc(C(F)(F)F)nc3)c3c(N)ncnc32)nnn1-c1ccccc1F` (single isomer, unassigned; enantiomer 2) [Example 180, 7-{1-[1-(2-Fluorophenyl)-5-methyl-1H-1,2,3-triazol-4-yl]ethyl}-5-[2-(trifluoromethyl)pyrimidin-5-yl]-7H-pyrrolo[2,3-d]pyrimidin-4-amine, enantiomer 2], the EC50 was determined as 1920 nM.

With `CCC(c1cn(-c2ccc(OC)nc2)nn1)n1cc(-c2cnc(C(F)(F)F)nc2)c2c(N)ncnc21` (single isomer, unassigned; enantiomer 2) [Example 310, 7-{1-[1-(6-Methoxypyridin-3-yl)-1H-1,2,3-triazol-4-yl]propyl}-5-[2-(trifluoromethyl)pyrimidin-5-yl]-7H-pyrrolo[2,3-d]pyrimidin-4-amine, enantiomer 2], the EC50 was determined as 1300 nM.

Regarding `CC(c1cnc(-c2ccccc2F)[nH]1)n1cc(-c2cccc3ccncc23)c2c(N)ncnc21` (centres unmarked) [Example 61, 7-{1-[2-(2-Fluorophenyl)-1H-imidazol-5-yl]ethyl}-5-(isoquinolin-8-yl)-7H-pyrrolo[2,3-d]pyrimidin-4-amine], the EC50 amounted to 1480 nM.

`CC(c1cnc(-c2ccccc2F)[nH]1)n1cc(-c2cnc3[nH]ccc3c2)c2c(N)ncnc21` (centres unmarked) [Example 62, 7-{1-[2-(2-Fluorophenyl)-1H-imidazol-5-yl]ethyl}-5-(7H-pyrrolo[2,3-b]pyridin-5-yl)-7H-pyrrolo[2,3-d]pyrimidin-4-amine]: the concentration giving a half-maximal response (EC50) amounted to 2220 nM.

`Cc1ccc2cc(F)c(-c3cn(C(C)c4cnc(-c5ccccc5F)[nH]4)c4ncnc(N)c34)cc2n1` (centres unmarked) [Example 63, 5-(6-Fluoro-2-methylquinolin-7-yl)-7-{1-[2-(2-fluorophenyl)-1H-imidazol-5-yl]ethyl}-7H-pyrrolo[2,3-d]pyrimidin-4-amine]: the concentration for a half-maximal effect (EC50) was 4540 nM.

`CC(c1cnc(-c2ccccc2F)[nH]1)n1cc(-c2ccc3c(c2)OCC(=O)N3)c2c(N)ncnc21` (centres unmarked) [Example 65, 7-(4-Amino-7-{1-[2-(2-fluorophenyl)-1H-imidazol-5-yl]ethyl}-7H-pyrrolo[2,3-d]pyrimidin-5-yl)-2H-1,4-benzoxazin-3(4H)-one]: the concentration giving a half-maximal response (EC50) came out at 1420 nM.

With `COc1cc2c(cc1-c1cn(C(C)c3cnc(-c4ccccc4F)[nH]3)c3ncnc(N)c13)CCC2` (centres unmarked) [Example 69, 7-{1-[2-(2-Fluorophenyl)-1H-imidazol-5-yl]ethyl}-5-(6-methoxy-2,3-dihydro-1H-inden-5-yl)-7H-pyrrolo[2,3-d]pyrimidin-4-amine], the 50% effective concentration (EC50) was 915 nM.

`CC(c1cnc(-c2ccccc2F)[nH]1)n1cc(-c2cn[nH]c2)c2c(N)ncnc21` (centres unmarked) [Example 71, 7-{1-[2-(2-Fluorophenyl)-1H-imidazol-5-yl]ethyl}-5-(1H-pyrazol-4-yl)-7H-pyrrolo[2,3-d]pyrimidin-4-amine]: the EC50 amounted to 129 nM.

Take `Cn1ncc2ccc(-c3cn(Cc4cn(-c5ccccc5F)nn4)c4ncnc(N)c34)cc21` [Example 73, 7-{[1-(2-Fluorophenyl)-1H-1,2,3-triazol-4-yl]methyl}-5-(1-methyl-1H-indazol-6-yl)-7H-pyrrolo[2,3-d]pyrimidin-4-amine]: the EC50 stood at 320 nM.

As for `Cn1cc2cc(-c3cn(Cc4cn(-c5ccccc5F)nn4)c4ncnc(N)c34)ccc2n1` [Example 76, 7-{[1-(2-Fluorophenyl)-1H-1,2,3-triazol-4-yl]methyl}-5-(2-methyl-2H-indazol-5-yl)-7H-pyrrolo[2,3-d]pyrimidin-4-amine], the EC50 worked out at 2380 nM.

In the case of `Cn1ncc2c(-c3cn(Cc4cn(-c5ccccc5F)nn4)c4ncnc(N)c34)cccc21` [Example 78, 7-{[1-(2-Fluorophenyl)-1H-1,2,3-triazol-4-yl]methyl}-5-(1-methyl-1H-indazol-4-yl)-7H-pyrrolo[2,3-d]pyrimidin-4-amine], the EC50 is 1380 nM.

Turning to `Nc1ncnc2c1c(-c1cnc3[nH]ccc3c1)cn2Cc1cn(-c2ccccc2F)nn1` [Example 80, 7-{[1-(2-Fluorophenyl)-1H-1,2,3-triazol-4-yl]methyl}-5-(7H-pyrrolo[2,3-b]pyridin-5-yl)-7H-pyrrolo[2,3-d]pyrimidin-4-amine], the EC50 stood at 3780 nM.

For `COc1cc(-c2cn(Cc3cn(-c4ccccc4F)nn3)c3ncnc(N)c23)ccc1C#N` [Example 84, 4-(4-Amino-7-{[1-(2-fluorophenyl)-1H-1,2,3-triazol-4-yl]methyl}-7H-pyrrolo[2,3-d]pyrimidin-5-yl)-2-methoxybenzonitrile], the EC50 worked out at 1560 nM.

Regarding `CC(=O)c1ccc(-c2cn(C(C)c3cn(-c4ccccc4F)nn3)c3ncnc(N)c23)s1` (centres unmarked) [Example 91, 1-[5-(4-Amino-7-{1-[1-(2-fluorophenyl)-1H-1,2,3-triazol-4-yl]ethyl}-7H-pyrrolo[2,3-d]pyrimidin-5-yl)thiophen-2-yl]ethanone], the EC50 worked out at 111 nM.

On to `CC(c1cn(-c2ccccc2F)nn1)n1cc(-c2cccc3c2cnn3C)c2c(N)ncnc21` (centres unmarked) [Example 92, 7-{1-[1-(2-Fluorophenyl)-1H-1,2,3-triazol-4-yl]ethyl}-5-(1-methyl-1H-indazol-4-yl)-7H-pyrrolo[2,3-d]pyrimidin-4-amine], for which the concentration for a half-maximal effect (EC50) was 2420 nM.

On to `COc1cc2c(cc1-c1cn(C(C)c3cn(-c4ccccc4F)nn3)c3ncnc(N)c13)CCCC2` (centres unmarked) [Example 93, 7-{1-[1-(2-Fluorophenyl)-1H-1,2,3-triazol-4-yl]ethyl}-5-(3-methoxy-5,6,7,8-tetrahydronaphthalen-2-yl)-7H-pyrrolo[2,3-d]pyrimidin-4-amine], for which the 50% effective concentration (EC50) was 691 nM.

As to `CC(c1cn(-c2ccccc2F)nn1)n1cc(-c2ccc3c(cnn3C)c2)c2c(N)ncnc21` (centres unmarked) [Example 95, 7-{1-[1-(2-Fluorophenyl)-1H-1,2,3-triazol-4-yl]ethyl}-5-(1-methyl-1H-indazol-5-yl)-7H-pyrrolo[2,3-d]pyrimidin-4-amine], the EC50 amounted to 488 nM.

As to `CC(c1cn(-c2ccccc2F)nn1)n1cc(-c2cnc3ccccc3c2)c2c(N)ncnc21` (centres unmarked) [Example 100, 7-{1-[1-(2-Fluorophenyl)-1H-1,2,3-triazol-4-yl]ethyl}-5-(quinolin-3-yl)-7H-pyrrolo[2,3-d]pyrimidin-4-amine], the EC50 was 277 nM.

`CC(c1cc(-c2ccccc2F)no1)n1cc(-c2ccc3c(c2)C(=O)N(C)C3)c2c(N)ncnc21` (centres unmarked) [Example 101, 6-(4-Amino-7-{1-[3-(2-fluorophenyl)-1,2-oxazol-5-yl]ethyl}-7H-pyrrolo[2,3-d]pyrimidin-5-yl)-2-methyl-2,3-dihydro-1H-isoindol-1-one]: the concentration giving a half-maximal response (EC50) came to 4060 nM.
